The record followed here is PubChem BioAssay (NCI).

Test systems include HS 578T breast; SN12C renal; U251 CNS; HT29 colon; HOP-62 NSCLC; NCI/ADR-RES ovarian; MDA-MB-435; UO-31 renal; A498 renal; UACC-62 melanoma.
What all share (experiment): inhibition of tumour cell growth, NCI panel, 48 h

Where “and” joins values, the source holds several entries; their conditions need not be identical. Identical values can stand only once.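 Five concentrations, 48 hours, 96-well plates. At the GI50, growth is halved. TGI denotes the concentration required for complete inhibition of growth.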 A value given as a limit tells only on which side of the number the result lay.

In the case of `CCCN(CCS(C)(=O)=O)Cc1ccc(-c2ccc3ncnc(Nc4ccc(OCc5cccc(F)c5)c(Cl)c4)c3c2)o1`, the GI50 is more than 25 µM with HS 578T breast; more than 25 µM in the experiment with SN12C renal; more than 25 µM in the experiment on U251 CNS; more than 25 µM in the experiment on HT29 colon; more than 25 µM in the experiment with HOP-62 NSCLC; 12 µM with NCI/ADR-RES ovarian. The GI50 with MDA-MB-435 was more than 25 µM; with UO-31 renal, 5.12 µM; in the experiment with A498 renal, more than 13.6 µM; in the experiment on UACC-62 melanoma it was more than 25 µM. Moreover, the TGI with HS 578T breast, in the experiment on SN12C renal, with U251 CNS, with HT29 colon, with HOP-62 NSCLC and in the experiment with NCI/ADR-RES ovarian was more than 25 µM in each case. Moreover, the TGI in the experiment with MDA-MB-435, with UO-31 renal, with A498 renal and in the experiment on UACC-62 melanoma was more than 25 µM in each case.
In the case of `N#Cc1c(N2CCOCC2)nc(=S)[nH]c1-c1ccco1`, the GI50 is 2.08 µM in the experiment with HS 578T breast; 4.46 µM in the experiment on SN12C renal; 20.2 µM in the experiment on U251 CNS; 9.56 µM in the experiment on HT29 colon; 2.95 µM in the experiment on HOP-62 NSCLC; 15.6 µM in the experiment on NCI/ADR-RES ovarian. Also, the GI50 was 15.9 µM with MDA-MB-435, 2.67 µM with UO-31 renal, 1.19 µM in the experiment on A498 renal and 2.91 µM in the experiment on UACC-62 melanoma. Further, the TGI was 17.3 µM in the experiment with HS 578T breast; more than 100 µM in the experiment with SN12C renal; more than 100 µM with U251 CNS; more than 100 µM in the experiment with HT29 colon; 9.16 µM with HOP-62 NSCLC; more than 100 µM with NCI/ADR-RES ovarian. Moreover, the TGI in the experiment with MDA-MB-435 is more than 100 µM; with UO-31 renal, 72.3 µM; with A498 renal, 7.23 µM; in the experiment on UACC-62 melanoma, 32.7 µM.
Consider `NC(=O)c1csc(C2OC(CO)C(O)C2O)n1` (stereo not drawn), for which the GI50 with HS 578T breast is 77.7 µM; in the experiment with U251 CNS, 45.5 µM; in the experiment on HT29 colon, 45.9 µM; with HOP-62 NSCLC, 44.7 µM; in the experiment with NCI/ADR-RES ovarian, 47.4 µM; in the experiment with MDA-MB-435, 43.7 µM. Moreover, the GI50 in the experiment on UO-31 renal is 44.6 µM; in the experiment with UACC-62 melanoma, more than 79.7 µM. Moreover, the TGI is 875 µM with HS 578T breast; more than 8480 µM with SN12C renal; 2540 µM in the experiment on U251 CNS; more than 10000 µM in the experiment with HT29 colon; 3110 µM with HOP-62 NSCLC; 3010 µM in the experiment on NCI/ADR-RES ovarian. For the same compound, the TGI was more than 4870 µM in the experiment with MDA-MB-435, 1740 µM in the experiment on UO-31 renal, more than 9690 µM with A498 renal and 4960 µM with UACC-62 melanoma.
As to `O=C(O)CN1CCN(CC(=O)O)CC(=O)[O][Hg][O]C(=O)C1`, the GI50 with HS 578T breast was more than 43.9 µM; in the experiment on SN12C renal it was 18.5 µM; with U251 CNS, 12.2 µM; with HT29 colon it was 16 µM; in the experiment on HOP-62 NSCLC, 25.1 µM; with NCI/ADR-RES ovarian it was 30.5 µM. Besides, the GI50 is 16.2 µM in the experiment with MDA-MB-435, 17.5 µM in the experiment with UO-31 renal, more than 100 µM with A498 renal and 18.3 µM in the experiment with UACC-62 melanoma. The TGI with HS 578T breast was more than 71.3 µM; with SN12C renal, 34.8 µM; in the experiment with U251 CNS, 25.7 µM; in the experiment on HT29 colon, 34.1 µM; in the experiment on HOP-62 NSCLC it was more than 66.2 µM; in the experiment with NCI/ADR-RES ovarian, more than 81.3 µM. Besides, the TGI is 30.5 µM in the experiment with MDA-MB-435, 31.4 µM with UO-31 renal, more than 100 µM with A498 renal and 32.4 µM with UACC-62 melanoma.
Consider `Nc1nc(OCc2ccccc2)c2[nH]cnc2n1`, for which the GI50 is 18.9 µM and 18.3 µM with HS 578T breast; 29.4 µM and 26.4 µM with SN12C renal; 37.9 µM and 35.9 µM in the experiment on U251 CNS; 45.8 µM and 39.9 µM with HT29 colon; 42 µM and 23.5 µM with HOP-62 NSCLC; 97.2 µM and 84.9 µM in the experiment with NCI/ADR-RES ovarian. In addition, the GI50 in the experiment on MDA-MB-435 is 41.1 µM and 26.9 µM; with UO-31 renal it was 17.1 µM; with A498 renal, 15.2 µM; with UACC-62 melanoma, 25 µM and 17.3 µM. For the same compound, the TGI with HS 578T breast was 49.5 µM and 57.5 µM; with SN12C renal, 400 µM and 193 µM; in the experiment with U251 CNS, 400 µM and 204 µM; in the experiment on HT29 colon it was 400 µM and 175 µM; in the experiment on HOP-62 NSCLC it was 209 µM and 70.9 µM; in the experiment with NCI/ADR-RES ovarian, 414 µM. Moreover, the TGI is 143 µM with MDA-MB-435; 82 µM and 82.2 µM in the experiment with UO-31 renal; 183 µM and 71.3 µM in the experiment with A498 renal; 128 µM and 90.7 µM with UACC-62 melanoma.
Turning to `CC(C)C[C@H](NC(=O)CNC(=O)c1cc(Cl)ccc1Cl)B1OC(=O)CC(CC(=O)O)(C(=O)O)O1` (stereo partly drawn), the GI50 in the experiment on HS 578T breast is 0.0524 µM; in the experiment on SN12C renal, 0.0862 µM; in the experiment on U251 CNS, 0.0874 µM; in the experiment on HT29 colon it was 0.0327 µM; with HOP-62 NSCLC, 0.124 µM; with NCI/ADR-RES ovarian, 0.368 µM. The GI50 in the experiment with MDA-MB-435 was 0.0222 µM; with UO-31 renal, 0.0586 µM; with A498 renal, 0.0347 µM; in the experiment on UACC-62 melanoma, 0.0396 µM. Moreover, the TGI is 80.7 µM in the experiment on HS 578T breast; 0.982 µM in the experiment on SN12C renal; 5.64 µM in the experiment on U251 CNS; 0.141 µM with HT29 colon; 1.05 µM in the experiment with HOP-62 NSCLC; more than 100 µM with NCI/ADR-RES ovarian. Moreover, the TGI was determined as 0.0612 µM in the experiment on MDA-MB-435, 2 µM in the experiment on UO-31 renal, 0.164 µM in the experiment with A498 renal and 0.221 µM in the experiment with UACC-62 melanoma.
Take `CC1=C2[C@@H](CC1)[C@]1(C)O[C@@](c3ccccc3)(C[C@H]1OC(=O)CO)[C@H]2OC(=O)/C=C/c1ccccc1`: the GI50 in the experiment on HS 578T breast is 0.0309 µM; with SN12C renal, 1.14 µM; in the experiment on U251 CNS, 13.9 µM; with HT29 colon, 15.1 µM; with HOP-62 NSCLC, 17.1 µM; in the experiment on NCI/ADR-RES ovarian, 0.348 µM. Besides, the GI50 in the experiment on MDA-MB-435 was 16.2 µM; in the experiment on UO-31 renal, 0.618 µM; with A498 renal, 0.0966 µM; in the experiment with UACC-62 melanoma, 15.3 µM. The TGI in the experiment with HS 578T breast turned out to be 0.961 µM; with SN12C renal it was 30.2 µM; in the experiment on U251 CNS, 28.1 µM; in the experiment with HT29 colon, 34.1 µM; in the experiment on HOP-62 NSCLC, 37.3 µM; in the experiment on NCI/ADR-RES ovarian it was 16 µM. For the same compound, the TGI with MDA-MB-435 is 35.9 µM; in the experiment with UO-31 renal, 27.6 µM; with A498 renal it was 0.478 µM; in the experiment on UACC-62 melanoma it was 36 µM.
